Reference: patent US7994209B2, “3-phenoxymethylpyrrolidine compounds” (Theravance, Inc., priority 2009, dated 2011)

What was measured:
[1] = target: T1, hSERT (Homo sapiens, UniProt P31645); assay: hSERT neurotransmitter uptake assay (3H-5-HT), Assay 2; assay type: cell-based; design: expressed in transfected cells; host or cells: HEK-293; details: serotonin reuptake inhibition, 3H-5-HT uptake, HEK-293 hSERT cells (values without asterisk); read-out: SERT pIC50 (converted)
Experimental: (§1) Cells were harvested by centrifugation at 1100 rpm for 5 minutes, washed once by resuspension in PBS, then centrifuged. The supernatant was discarded and the cell pellet resuspended, by gentle trituration, in room temperature Krebs-Ringer bicarbonate buffer containing HEPES (10 mM), CaCl2 (2.2 mM), ascorbic acid (200 μM) and pargyline (200 μM), pH 7.4.
(§2) Test compounds were incubated for 30 minutes at 37° C. with the respective cells, prior to addition of radiolabeled neurotransmitter, ^3H-5-HT (20 nM final concentration), ^3H-NE (50 nM final concentration) or ^3H-DA (100 nM final concentration).

[2] = target: T2, hNET (Homo sapiens, UniProt P23975); assay: hNET neurotransmitter uptake assay (3H-NE), Assay 2; assay type: cell-based; design: expressed in transfected cells; host or cells: HEK-293; details: norepinephrine reuptake inhibition, 3H-NE uptake, HEK-293 hNET cells (values without asterisk); read-out: NET pIC50 (converted)
Experimental: as §1, §2

[3] = target: T2, hNET; assay: hNET membrane radioligand binding assay (3H-nisoxetine), Assay 1
Experimental: Membrane radioligand binding assays were used to measure inhibition of labeled ligand (^3H-citalopram or ^3H-nisoxetine or ^3H-WIN35428) binding to membranes prepared from cells expressing the respective human recombinant transporter (hSERT or hNET or hDAT) in order to determine the pKi values of test compounds at the transporters.
Recombinant human embryonic kidney (HEK-293) derived cell lines stably transfected with hSERT or hNET, respectively, were grown in DMEM medium supplemented with 10% dialyzed FBS (for hSERT) or FBS (for hNET), 100 μg/mL penicillin, 100 μg/mL streptomycin, 2 mM L-glutamine and 250 μg/mL of the aminoglycoside antibiotic G418, in a 5% CO2 humidified incubator at 37° C. When cultures reached 80% confluence, the cells were washed thoroughly in PBS (without Ca^2+ and Mg^2+) and lifted with 5 mM EDTA in PBS. Cells were pelleted by centrifugation, resuspended in lysis buffer (10 mM Tris-HCl, pH7.5 containing 1 mM EDTA), homogenized, pelleted by centrifugation, then resuspended in 50 mM Tris-HCl, pH 7.5 and 10% sucrose at 4° C. Protein concentration of the membrane suspension was determined using a Bio-Rad Bradford Protein Assay kit. Membranes were snap frozen and stored at −80° C.
Binding assays were performed in a 96-well assay plate in a total volume of 200 μl assay buffer (50 mM Tris-HCl, 120 mM NaCl, 5 mM KCl, pH 7.4) with 0.5, 1, and 3 μg membrane protein, for SERT, NET and DAT, respectively.
Stock solutions (10 mM in DMSO) of test compound were prepared and serial dilutions made using Dilution Buffer (50 mM Tris-HCl, 120 mM NaCl, 5 mM KCl, pH 7.4, 0.1% BSA, 400 μM ascorbic acid).
Following a 60 minute incubation at 22° C. (or a period sufficient to reach equilibrium), the membranes were harvested by rapid filtration over a 96-well UniFilter GF/B plate, pretreated with 0.3% polyethyleneimine, and washed 6 times with 300 μl wash buffer (50 mM Tris-HCl, 0.9% NaCl, pH 7.5 at 4° C.). Plates were dried overnight at room temperature, approximately 45 μl of MicroScint™-20 (Perkin Elmer) added and bound radioactivity quantitated via liquid scintillation spectroscopy. Inhibition curves and saturation isotherms were analyzed using GraphPad Prism Software package (GraphPad Software, Inc., San Diego, Calif.). IC50 values were generated from concentration response curves using the Sigmoidal Dose Response (variable slope) algorithm in Prism GraphPad.

[4] = target: T1, hSERT; assay: hSERT membrane radioligand binding assay (3H-citalopram), Assay 1; details: SERT pKi, hSERT HEK-293 membranes, 1.0 nM 3H-citalopram; values given as lower bounds

T2 sequence (P23975 whole entry): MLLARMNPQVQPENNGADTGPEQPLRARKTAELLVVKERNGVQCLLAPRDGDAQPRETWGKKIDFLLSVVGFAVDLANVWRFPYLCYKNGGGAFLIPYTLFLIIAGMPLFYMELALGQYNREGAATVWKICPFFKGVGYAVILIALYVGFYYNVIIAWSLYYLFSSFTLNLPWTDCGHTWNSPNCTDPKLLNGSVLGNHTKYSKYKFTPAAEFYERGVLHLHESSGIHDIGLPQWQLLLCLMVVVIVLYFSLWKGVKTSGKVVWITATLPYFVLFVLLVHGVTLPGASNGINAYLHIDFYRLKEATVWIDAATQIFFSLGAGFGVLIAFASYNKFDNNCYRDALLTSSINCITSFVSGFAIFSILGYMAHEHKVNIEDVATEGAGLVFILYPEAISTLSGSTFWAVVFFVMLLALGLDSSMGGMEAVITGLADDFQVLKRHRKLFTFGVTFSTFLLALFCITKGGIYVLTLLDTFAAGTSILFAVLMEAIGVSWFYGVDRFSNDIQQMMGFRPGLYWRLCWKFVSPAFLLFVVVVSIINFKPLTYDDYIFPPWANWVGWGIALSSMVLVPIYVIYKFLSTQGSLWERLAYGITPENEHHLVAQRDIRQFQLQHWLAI
T1 sequence (P31645 whole entry): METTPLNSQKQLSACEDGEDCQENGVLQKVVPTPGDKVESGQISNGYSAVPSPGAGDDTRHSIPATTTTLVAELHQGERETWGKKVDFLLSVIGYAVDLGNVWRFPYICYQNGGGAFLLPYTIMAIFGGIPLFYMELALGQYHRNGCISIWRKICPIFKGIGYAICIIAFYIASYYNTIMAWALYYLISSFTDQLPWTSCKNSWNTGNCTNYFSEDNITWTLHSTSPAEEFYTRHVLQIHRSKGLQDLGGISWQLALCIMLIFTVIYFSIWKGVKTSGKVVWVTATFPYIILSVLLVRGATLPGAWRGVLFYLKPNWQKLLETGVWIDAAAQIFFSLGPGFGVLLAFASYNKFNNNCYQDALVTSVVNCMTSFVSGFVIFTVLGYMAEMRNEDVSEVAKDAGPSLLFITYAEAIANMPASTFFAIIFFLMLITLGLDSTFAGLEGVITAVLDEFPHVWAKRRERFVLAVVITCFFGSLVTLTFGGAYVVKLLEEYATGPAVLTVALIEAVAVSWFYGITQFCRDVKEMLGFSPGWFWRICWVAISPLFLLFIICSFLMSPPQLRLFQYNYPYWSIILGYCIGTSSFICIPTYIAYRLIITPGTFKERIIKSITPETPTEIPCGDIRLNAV

IC50 [1] | IC50 [2] | Ki [3] | Ki [4] | Structure (SMILES)
≤ 10 nM | ≤ 10 nM | – | ≤ 10 nM | CC(C)CC(Oc1cccc(F)c1)C1CCNC1 (stereo not drawn) [Example 10-26, 3-[1-(3-Fluorophenoxy)-3-methylbutyl]pyrrolidine]
– | – | ≤ 10 nM | ≤ 100 nM | Clc1ccc(O[C@@H](C2CC2)[C@H]2CCNC2)c(C2CCCCC2)c1 [Example 16-43, (S)-3-[(S)-(4-Chloro-2-cyclohexylphenoxy)cyclopropylmethyl]pyrrolidine]
– | – | ≤ 10 nM | ≤ 100 nM | Cc1cccc(Cl)c1O[C@@H](C1CC1)[C@H]1CCNC1 [Example 16-45, (S)-3-[(S)-(2-Chloro-6-methylphenoxy)cyclopropylmethyl]pyrrolidine]
– | – | ≤ 10 nM | ≤ 100 nM | Cc1ccc(Cl)c(O[C@@H](C2CC2)[C@H]2CCNC2)c1F [Example 16-68, (S)-3-[(S)-(6-Chloro-2-fluoro-3-methylphenoxy)cyclopropylmethyl]pyrrolidine]
– | – | ≤ 10 nM | ≤ 100 nM | Cc1ccc(Cl)c(O[C@H](C2CC2)[C@H]2CCNC2)c1F [Example 16-69, (S)-3-[(R)-(6-Chloro-2-fluoro-3-methylphenoxy)cyclopropylmethyl]pyrrolidine]
– | – | ≤ 10 nM | ≤ 100 nM | COc1ccc(Cl)c(O[C@@H](C2CC2)[C@H]2CCNC2)c1F [Example 16-70, (S)-3-[(S)-(6-Chloro-2-fluoro-3-methoxyphenoxy)cyclopropylmethyl]pyrrolidine]
– | – | ≤ 100 nM | ≤ 10 nM | Clc1cc(Cl)c(O[C@@H](C2CC2)[C@H]2CCNC2)cc1Cl [Example 16-71, (S)-3-[(S)cyclopropyl-(2,4,5-trichlorophenoxy)methyl]pyrrolidine]
– | – | ≤ 10 nM | ≤ 10 nM | Fc1cc(Cl)cc(Cl)c1O[C@@H](C1CC1)[C@H]1CCNC1 [Example 16-75, (S)-3-[(S)cyclopropyl-(2,4-dichloro-6-fluorophenoxy)methyl]pyrrolidine]
– | – | ≤ 100 nM | ≤ 10 nM | Cc1cc(Cl)cc(C)c1O[C@@H](C1CC1)[C@H]1CCNC1 [Example 16-82, (S)-3-[(S)-(4-Chloro-2,6-dimethylphenoxy)cyclopropylmethyl]pyrrolidine]
– | – | ≤ 100 nM | ≤ 10 nM | Cc1cc(O[C@@H](C2CC2)[C@H]2CCNC2)c(Cl)c(C)c1Cl [Example 16-83, (S)-3-[(S)cyclopropyl-(2,4-dichloro-3,5-dimethylphenoxy)-methyl]pyrrolidine]
– | – | ≤ 100 nM | ≤ 10 nM | Fc1ccc(O[C@H](C2CC2)[C@@H]2CCNC2)cc1Cl [Example 16-90, (R)-3-[(R)-(3-Chloro-4-fluorophenoxy)cyclopropylmethyl]pyrrolidine]
– | – | ≤ 100 nM | ≤ 10 nM | Fc1cc(O[C@H](C2CC2)[C@@H]2CCNC2)ccc1Cl [Example 16-92, (R)-3-[(R)-(4-Chloro-3-fluorophenoxy)cyclopropylmethyl]pyrrolidine]
– | – | ≤ 100 nM | ≤ 10 nM | Clc1ccc(O[C@H](C2CC2)[C@H]2CCNC2)cc1 [Example 16-102, (S)-3-[(R)-(4-Chlorophenoxy)cyclopropylmethyl]pyrrolidine]
– | – | ≤ 100 nM | ≤ 10 nM | FC(F)(F)c1ccc(O[C@@H](C2CC2)[C@H]2CCNC2)cc1 [Example 16-104, (S)-3-[(S)cyclopropyl-(4-trifluoromethylphenoxy)methyl]pyrrolidine]
– | – | ≤ 10 nM | ≤ 100 nM | Fc1ccccc1O[C@H](C1CCCCC1)[C@H]1CCNC1 [Example 20-1, (S)-3-[(R)-Cyclohexyl-(2-fluorophenoxy)methyl]pyrrolidine]
– | – | ≤ 100 nM | ≤ 100 nM | COc1ccccc1OC(C1CCCCC1)C1CCNC1 (stereo not drawn) [Example 20-2, 3-[Cyclohexyl-(2-methoxyphenoxy)methyl]pyrrolidine]
– | – | ≤ 10 nM | ≤ 100 nM | O=[N+]([O-])c1ccccc1O[C@H](C1CCCCC1)[C@H]1CCNC1 [Example 20-3, (S)-3-[(R)-Cyclohexyl-(2-nitrophenoxy)methyl]pyrrolidine]
– | – | ≤ 10 nM | ≤ 100 nM | CC(=O)c1ccccc1O[C@@H](C1CCCCC1)[C@@H]1CCNC1 [Example 20-4, 1-[2-((R)-Cyclohexyl-(S)-pyrrolidin-3-yl-methoxy)phenyl]ethanone]
– | – | ≤ 10 nM | ≤ 10 nM | Clc1cc(Cl)cc(OC(C2CCCCC2)C2CCNC2)c1 (stereo not drawn) [Example 20-6, 3-[Cyclohexyl-(3,5-dichlorophenoxy)methyl]pyrrolidine]
– | – | ≤ 10 nM | ≤ 100 nM | Fc1cccc(O[C@H](C2CCCCC2)[C@H]2CCNC2)c1 [Example 20-7, (S)-3-[(R)-Cyclohexyl-(3-fluorophenoxy)methyl]pyrrolidine]
– | – | ≤ 10 nM | ≤ 100 nM | Clc1ccc(O[C@@H](C2CC2)[C@H]2CCNC2)c2ccccc12 [Example 23-2, (S)-3-[(S)-(4-Chloronaphthalen-1-yloxy)cyclopropylmethyl]pyrrolidine]
– | – | ≤ 100 nM | ≤ 10 nM | C=CC[C@@H](Oc1ccc(Cl)cc1C)[C@H]1CCNC1 [Example 25-2, (S)-3-[(R)-1-(4-Chloro-2-methylphenoxy)but-3-enyl]pyrrolidine]
– | – | ≤ 100 nM | ≤ 10 nM | C#CC(Oc1ccc(Cl)cc1C)[C@H]1CCNC1 (stereo partly drawn) [Example 27-2, (S)-3-[1-(4-Chloro-2-methylphenoxy)prop-2-ynyl]pyrrolidine]

The remaining lines, values behind:

Structure (SMILES) | IC50 [1] | IC50 [2] | Ki [3] | Ki [4]
CC[C@H](Oc1ccc(Cl)cc1Cl)[C@H]1CCNC1 [Example 1, (S)-3-[(S)-1-(2,4-Dichlorophenoxy)propyl]pyrrolidine] | ≤ 10 nM | ≤ 10 nM | ≤ 10 nM | ≤ 10 nM
CC[C@H](Oc1cccc(Cl)c1)[C@H]1CCNC1 [Example 2-1, (S)-3-[(S)-1-(3-Chlorophenoxy)propyl]pyrrolidine] | ≤ 100 nM | ≤ 10 nM | ≤ 10 nM | ≤ 100 nM
CC[C@H](Oc1ccc(Cl)cc1)[C@H]1CCNC1 [Example 2-2, (S)-3-[(S)-1-(4-Chlorophenoxy)propyl]pyrrolidine] | ≤ 10 nM | ≤ 10 nM | ≤ 10 nM | ≤ 10 nM
CC[C@H](Oc1ccc(Cl)c(F)c1)[C@H]1CCNC1 [Example 2-5, (S)-3-[(S)-1-(4-Chloro-3-fluorophenoxy)propyl]pyrrolidine] | ≤ 10 nM | ≤ 10 nM | ≤ 10 nM | ≤ 10 nM
CC[C@H](Oc1ccc(Cl)c(Cl)c1)[C@H]1CCNC1 [Example 2-7, (S)-3-[(S)-1-(3,4-Dichlorophenoxy)propyl]pyrrolidine] | ≤ 10 nM | ≤ 10 nM | ≤ 10 nM | ≤ 10 nM
CC[C@H](Oc1ccc(Cl)c(C)c1)[C@H]1CCNC1 [Example 2-13, (S)-3-[(S)-1-(4-Chloro-3-methylphenoxy)propyl]pyrrolidine] | ≤ 10 nM | ≤ 10 nM | ≤ 10 nM | ≤ 10 nM
CC[C@H](Oc1cc(Cl)cc(Cl)c1)[C@H]1CCNC1 [Example 2-18, (S)-3-[(S)-1-(3,5-Dichlorophenoxy)propyl]pyrrolidine] | ≤ 100 nM | ≤ 100 nM | ≤ 100 nM | ≤ 10 nM
CC[C@@H](Oc1cc(Cl)cc(Cl)c1)[C@@H]1CCNC1 [Example 2-19, (R)-3-[(R)-1-(3,5-Dichlorophenoxy)propyl]pyrrolidine] | ≤ 100 nM | ≤ 100 nM | ≤ 10 nM | ≤ 10 nM
CC[C@H](Oc1ccc(F)c(Cl)c1)[C@H]1CCNC1 [Example 2-21, (S)-3-[(S)-1-(3-Chloro-4-fluorophenoxy)propyl]pyrrolidine] | ≤ 100 nM | ≤ 10 nM | ≤ 10 nM | ≤ 10 nM
CC[C@H](Oc1cc(F)c(OC)c(F)c1)[C@H]1CCNC1 [Example 2-22, (S)-3-[(S)-1-(3,5-Difluoro-4-methoxyphenoxy)propyl]pyrrolidine] | ≤ 100 nM | ≤ 10 nM | ≤ 10 nM | ≤ 10 nM
CC[C@H](Oc1ccccc1Cl)[C@H]1CCNC1 [Example 2-23, (S)-3-[(S)-1-(2-Chlorophenoxy)propyl]pyrrolidine] | ≤ 100 nM | ≤ 10 nM | ≤ 10 nM | ≤ 10 nM
CC[C@H](Oc1c(F)cccc1Cl)[C@H]1CCNC1 [Example 2-25, (S)-3-[(S)-1-(2-Chloro-6-fluorophenoxy)-propyl]pyrrolidine] | ≤ 100 nM | ≤ 10 nM | ≤ 10 nM | ≤ 10 nM
CC[C@H](Oc1c(C)cccc1Cl)[C@H]1CCNC1 [Example 2-27, (S)-3-[(S)-1-(2-Chloro-6-methylphenoxy)propyl]pyrrolidine] | ≤ 100 nM | ≤ 10 nM | ≤ 10 nM | ≤ 10 nM
CC[C@H](Oc1cccc(Cl)c1Cl)[C@H]1CCNC1 [Example 2-28, (S)-3-[(S)-1-(2,3-Dichlorophenoxy)propyl]pyrrolidine] | ≤ 10 nM | ≤ 10 nM | ≤ 10 nM | ≤ 10 nM
FC1(F)CCC(C(Oc2cc(Cl)cc(Cl)c2)C2CCNC2)CC1 (stereo not drawn) [Example 21, 3-[(3,5-Dichloro-phenoxy)-(4,4-difluorocyclohexyl)methyl]pyrrolidine] | – | – | ≤ 10 nM | ≤ 10 nM
